According to patent US20070099915A1, “INHIBITORS OF THE HIV INTEGRASE ENZYME” (PFIZER INC., priority 2005, published 2007):
Counter-ions that a name gives are not always drawn. Like-named read-outs stand apart in the source and are kept apart here.

How the values were obtained:
[1] = test system: HIV-1 RF virus in CEM-SS cells; experiment: HIV-1 cell protection assay (XTT dye reduction); format: cell-based
Procedure: Six days later, 50 μl of XTT solution (1 mg/ml XTT tetrazolium and 20 nM phenazine methosulfate) were added to the wells and the plates were reincubated for four hours. Viability, as determined by the amount of XTT formazan produced, was quantified spectrophotometrically by absorbance at 450 nm.
Data from CPE assays were expressed as the percent of formazan produced in compound-treated cells compared to formazan produced in wells of uninfected, compound-free cells. […] The 50% cytotoxicity concentration (CC50) was calculated as the concentration of compound that decreased the percentage of formazan produced in uninfected, compound-treated cells to 50% of that produced in uninfected, compound-free cells. The therapeutic index was calculated by dividing the cytotoxicity (CC50) by the antiviral activity (EC50).

[2] = biological target: T1, Full-length wild type HIV-1 integrase (SF1) (Human immunodeficiency virus type 1 group M subtype B, UniProt P04585); experiment: Integrase strand-transfer scintillation proximity assay; format: biochemical; conditions: strand-transfer SPA, 246 nM integrase, 50 nM host DNA, 37° C., 50 min; read-out: IC50
T1 construct: made in house; host or cells: E. coli BL21 (DE3)
Source text: The annealed product represents preprocessed viral ds-DNA derived from the LTR U5 sequence of the viral genome. A ds-DNA control to test for non-specific interactions was made using a 3′ di-deoxy derivative of oligonucleotide #1 annealed to oligonucleotide #2. The CA overhang at the 5′ end of the non-biotinylated strand of the ds-DNA was created artificially by using a complimentary DNA oligonucleotide shortened by 2 base pairs. This configuration eliminates the requisite 3′ processing step of the integrase enzyme prior to the strand-transfer mechanism.
The annealed product had overhanging 3′ ends of poly(dA). […] The radiolabeled product was purified using a NENSORB cartridge and stored in stabilized aqueous solution (PerkinElmer).
Reagents: Streptavidin-coated polyvinyltoluene (PVT) SPA beads were purchased from Amersham Biosciences (Piscataway, N.J.). Cesium chloride was purchased from Shelton Scientific, Inc. (Shelton, Conn.). White, polystyrene, flat-bottom, non-binding surface, 96-well plates were purchased from Corning. All other buffer components were purchased from Sigma (St. Louis, Mo.) unless otherwise indicated.
Enzyme Construction: Full-length wild type HIV-1 integrase (SF1) sequence (amino acids 1-289) was constructed in a pET24a vector (Novagen, Madison, Wis.).
Enzyme Purification: Full length wild-type HIV Integrase was expressed in E. coli BL21 (DE3) cells and induced with 1 mM isopropyl-1 thio-β-D-galactopyranoside (IPTG) when cells reached an optical density between 0.8-1.0 at 600 nm. Cells were lysed by microfluidation in 50 mM HEPES pH 7.0, 75 mM NaCl, 5 mM DTT, 1 mM 4-(2-Aminoethyl)benzenesulfonylfluoride HCl (AEBSF). Lysate was then centrifuged 20 minutes at 11 k rpm in GSA rotor in Sorvall RC-5B at 4° C. Supernant was discarded and pellet resuspended in 50 mM HEPES pH 7.0, 750 mM NaCl, 5 mM DTT, 1 mM AEBSF and homogenized in a 40 mL Dounce homogenizer for 20 minutes on ice. Homogenate was then centrifuged 20 minutes at 11 k rpm in SS34 rotor in Sorvall RC-5B at 4° C. Supernant was discarded and pellet resuspended in 50 mM HEPES pH 7.0, 750 mM NaCl, 25 mM CHAPS, 5 mM DTT, 1 mM AEBSF. Preparation was then centrifuged 20 minutes at 11 k rpm in SS34 rotor in Sorvall RC-5B at 4° C.
Supernant was then diluted 1:1 with 50 mM HEPES pH 7.0, 25 mM CHAPS, 1 mM DTT, 1 mM AEBSF and loaded onto a Q-Sepharose column pre-equilibrated with 50 mM HEPES, pH 7.0, 375 mM NaCl, 25 mM CHAPS, 1 mM DTT, 1 mM AEBSF. The flow through peak was collected and NaCl diluted to 0.1 M with 50 mM HEPES pH 7.0, 25 mM CHAPS, 1 mM DTT, 0.5 mM AEBSF and loaded onto a SP-Sepharose column pre-equilibrated with 50 mM HEPES pH 7.0, 100 mM NaCl, 25 mM CHAPS, 1 mM DTT, 0.5 mM AEBSF. After washing the column with the equilibration buffer, a 100 to 400 mM NaCl gradient was run. The eluted integrase was concentrated and run on a S-300 gel diffusion column using 50 mM HEPES pH 7.0, 500 mM NaCl, 25 mM CHAPS, 1 mM DTT, 0.5 mM AEBSF. […] All columns were run in a 4° C. cold room.
Viral DNA Bead Preparation: Streptavidin-coated SPA beads were suspended to 20 mg/mL in 25 mM 3-morpholinopropanesulfonic acid (MOPS) (pH 7.2) and 1.0% NaN3. Biotinylated viral DNA was bound to the hydrated SPA beads in a batch process by combining […] of ds-DNA to 1 mg of suspended SPA beads (10 μL of 50 μM viral DNA to 1 mL of 20 mg/mL SPA beads). The mixture was incubated at 22° C. for a minimum of 20 min. with occasional mixing followed by centrifugation at 2500 rpm for 10 min.

[3] = Human immunodeficiency virus 1, 144 h, RF strain of HIV-1, CEM-SS cells, XTT read-out after six days, read-out: EC50
[4] = Human immunodeficiency virus 1, CEM-SS, 144 h

SMILES | EC50 [1, 3] [nM] | IC50 [2] [nM] | EC50 [1, 4] [nM]
O=C1c2ncc3c(c(CNCc4ccc(F)c(F)c4)cn3Cc3ccc(F)cc3)c2CCN1O [Example 48, 1-{[(3,4-difluorobenzyl)amino]methyl}-3-(4-fluorobenzyl)-7-hydroxy-3,7,8,9-tetrahydro-6H-pyrrolo[2,3-c]-1,7-naphthyridin-6-one] | 1 | 16.8 | 
COCCN1CCN(Cc2cn(Cc3ccc(F)cc3)c3cnc4c(c23)CCN(O)C4=O)CC1 [Example 49, 3-(4-fluorobenzyl)-7-hydroxy-1-{[4-(2-methoxyethyl)piperazin-1-yl]methyl}-3,7,8,9-tetrahydro-6H-pyrrolo[2,3-c]-1,7-naphthyridin-6-one] | 3.2 | 16.2 | 
CN(Cc1cn(Cc2ccc(F)cc2)c2cnc3c(c12)CCN(O)C3=O)C1CCCOC1 (stereo not drawn) [Example 50, 3-(4-fluorobenzyl)-7-hydroxy-1-{[methyl(tetrahydro-2H-pyran-3-yl)amino]methyl}-3,7,8,9-tetrahydro-6H-pyrrolo[2,3-c]-1,7-naphthyridin-6-one] | 1.8 | 11.9 | 
CCOCCCOCc1cn(Cc2ccc(F)cc2)c2cnc3c(c12)CCN(O)C3=O [Example 51, 1-[(3-ethoxypropoxy)methyl]-3-(4-fluorobenzyl)-7-hydroxy-3,7,8,9-tetrahydro-6H-pyrrolo[2,3-c]-1,7-naphthyridin-6-one hydrochloride] |  | 17 | 0.4
O=C1c2ncc3c(c(Cl)cn3Cc3ccc(F)cc3)c2CCN1O [Example 52, 1-chloro-3-(4-fluorobenzyl)-7-hydroxy-3,7,8,9-tetrahydro-6H-pyrrolo[2,3-c]-1,7-naphthyridin-6-one] | 0.91 | 19 | 
N#Cc1cn(Cc2ccc(F)cc2)c2cnc3c(c12)CCN(O)C3=O [Example 54, 3-(4-fluorobenzyl)-7-hydroxy-6-oxo-6,7,8,9-tetrahydro-3H-pyrrolo[2,3-c]-1,7-naphthyridine-1-carbonitrile] | 6.6 | 20 | 
CC(C)COCc1cn(Cc2ccc(F)cc2)c2cnc3c(c12)CCN(O)C3=O [Example 56, 3-(4-fluorobenzyl)-7-hydroxy-1-(isobutoxymethyl)-3,7,8,9-tetrahydro-6H-pyrrolo[2,3-c]-1,7-naphthyridin-6-one] | 0.32 | 11 | 
O=C1c2ncc3c(c(COCCOCc4ccccc4)cn3Cc3ccc(F)cc3)c2CCN1O [Example 57, 1-{[2-(benzyloxy)ethoxy]methyl}-3-(4-fluorobenzyl)-7-hydroxy-3,7,8,9-tetrahydro-6H-pyrrolo[2,3-c]-1,7-naphthyridin-6-one] | 0.69 | 12 | 
CC(C)COCCOCc1cn(Cc2ccc(F)cc2)c2cnc3c(c12)CCN(O)C3=O [Example 58, 3-(4-fluorobenzyl)-7-hydroxy-1-[(2-isobutoxyethoxy)methyl]-3,7,8,9-tetrahydro-6H-pyrrolo[2,3-c]-1,7-naphthyridin-6-one] | 0.52 | 16 | 
CCCCOCCOCc1cn(Cc2ccc(F)cc2)c2cnc3c(c12)CCN(O)C3=O [Example 59] | 4.9 | 16 | 
CCCCOCc1cn(Cc2ccc(F)cc2)c2cnc3c(c12)CCN(O)C3=O [Example 60, 1-(butoxymethyl)-3-(4-fluorobenzyl)-7-hydroxy-3,7,8,9-tetrahydro-6H-pyrrolo[2,3-c]-1,7-naphthyridin-6-one] | 0.39 | 12 | 
O=C1c2ncc3c(c(Br)cn3Cc3ccc(F)cc3)c2CCN1O [Example 61, 1-bromo-3-(4-fluorobenzyl)-7-hydroxy-3,7,8,9-tetrahydro-6H-pyrrolo[2,3-c]-1,7-naphthyridin-6-one] | 0.32 | 17 | 
CC(=O)CCCOCc1cn(Cc2ccc(F)cc2)c2cnc3c(c12)CCN(O)C3=O [Example 63, 3-(4-fluorobenzyl)-7-hydroxy-1-{[(4-oxopentyl)oxy]methyl}-3,7,8,9-tetrahydro-6H-pyrrolo[2,3-c]-1,7-naphthyridin-6-one] | 3 | 10 | 
Cc1ncccc1COCc1cn(Cc2ccc(F)cc2)c2cnc3c(c12)CCN(O)C3=O [Example 64, 3-(4-fluorobenzyl)-7-hydroxy-1-{[(2-methylpyridin-3-yl)methoxy]methyl}-3,7,8,9-tetrahydro-6H-pyrrolo[2,3-c]-1,7-naphthyridin-6-one] | 1 | 9 | 
COc1cccc(CCOCc2cn(Cc3ccc(F)cc3)c3cnc4c(c23)CCN(O)C4=O)c1 [Example 66] | 1 | 13 | 
O=C1c2ncc3c(c(COCCOc4ccccc4)cn3Cc3ccc(F)cc3)c2CCN1O [Example 67, 3-(4-fluorobenzyl)-7-hydroxy-1-[(2-phenoxyethoxy)methyl]-3,7,8,9-tetrahydro-6H-pyrrolo[2,3-c]-1,7-naphthyridin-6-one] | 1 | 15 | 
CC(=O)c1cn(Cc2ccc(F)cc2)c2cnc3c(c12)CCN(O)C3=O [Example 68, 1-acetyl-3-(4-fluorobenzyl)-7-hydroxy-3,7,8,9-tetrahydro-6H-pyrrolo[2,3-c]-1,7-naphthyridin-6-one-methane (1:1)] |  | 12 | 3
O=C1c2ncc3c(c(CNC4CCOCC4)cn3Cc3ccc(F)cc3)c2CCN1O [Example 69, 3-(4-fluorobenzyl)-7-hydroxy-1-[(tetrahydro-2H-pyran-4-ylamino)methyl]-3,7,8,9-tetrahydro-6H-pyrrolo[2,3-c]-1,7-naphthyridin-6-one] | 27 | 20 | 
CCn1ccnc1CN(C)Cc1cn(Cc2ccc(F)cc2)c2cnc3c(c12)CCN(O)C3=O [Example 70, 1-{[[(1-ethyl-1H-imidazol-2-yl)methyl](methyl)amino]methyl}-3-(4-fluorobenzyl)-7-hydroxy-3,7,8,9-tetrahydro-6H-pyrrolo[2 3-c]-1,7-naphthyridin-6-one] | 43 | 22 | 
CCN(C)Cc1cn(Cc2ccc(F)cc2)c2cnc3c(c12)CCN(O)C3=O [Example 71, 1-{[ethyl(methyl)amino]methyl}-3-(4-fluorobenzyl)-7-hydroxy-3,7,8,9-tetrahydro-6H-pyrrolo[2,3-c]-1,7-naphthyridin-6-one] | 8 | 27 | 
O=C1c2ncc3c(c(CN4C[C@@H](F)[C@H](F)C4)cn3Cc3ccc(F)cc3)c2CCN1O [Example 72, 1-{[(3R,4R)-3,4-difluoropyrrolidin-1-yl]methyl}-3-(4-fluorobenzyl)-7-hydroxy-3,7,8,9-tetrahydro-6H-pyrrolo[2,3-c]-1,7-naphthyridin-6-one] | 0.5 | 9 | 
